{"source": "patent US20220071939A1", "about": "“COMPOUNDS AND METHODS FOR THE TREATMENT OF POLYCYSTIC KIDNEY DISEASE (PKD)” (Resilio Therapeutics, LLC, priority 2018, published 2022)", "key": {"[1]": {"tested_on": "cysts formed from ADPKD donor cells in 3D cultures", "assay": "3D cyst formation assay (cyst number and cyst size by light microscopy)", "type": "cell-based, human", "conditions": "3D culture", "method": "(§1) Studies were performed on DFMO, the metabolic product of DFMO-prodrugs, in primary cell cultures of 2 dimensional (2D) cellular toxicity assays, 3 dimensional (3D) cyst formation assays and 3D tubulogenesis assays. DFMO was less than 10% toxic (90% viable) to human renal mixed epithelial cells in 2D cultures from Autosomal Dominant Polycystic Kidney Disease (ADPKD) donors up to 10 mM DFMO concentration as measured using a Cell Titer Go kit (FIG. 1). In the 3D cyst cultures, a population of mixed cells from a surgically resected cyst from a donor ADPKD kidney is combined with human kidney fibroblasts to grow cysts in a proprietary media (Discovery BioMed, Inc) that contains conditioned media from kidney fibroblasts and a Biogel matrix (DiscoveryBioMed). Using light microscopy to count cysts, the number of cysts formed in 3D cultures decreased in a dose-dependent fashion to 50% of controls at 10 mM DFMO (FIG. 2). Photomicrographs of cysts formed from ADPKD donor cells in 3D cultures show a time dependent change in cyst size."}, "[2]": {"tested_on": "normal human kidney (NHK) cells in 3D cultures", "assay": "3D tubulogenesis assay", "type": "cell-based", "conditions": "10 mM DFMO", "method": "As a further proof of the potential utility of DFMO/DFMO-prodrugs in ADPKD patients, we also performed a tubulogenesis assay with normal human kidney cells in 3D cultures. Vehicle treated normal human kidney (NHK) cells form tubules by Day 3 in 3D cultures (FIG. 5) as do 10 mM DFMO-treated NHK cells, which also form tubules under the same conditions (FIG. 6)."}, "[3]": {"tested_on": "human renal mixed epithelial cells in 2D cultures from Autosomal Dominant Polycystic Kidney Disease (ADPKD) donors", "assay": "2D cellular toxicity assay (viability by ATP release, Cell TiterGlo kit)", "type": "cell-based", "method": "as §1, with “FIG. 1 is a plot of cell viability as a function of difluoromethyl omithine (DFMO) concentration, showing the viability of primary ADPKD cells in 2D culture as measured by ATP release using Cell TiterGlo kit. Studies” for “Studies”, “2).” for “2). Photomicrographs of cysts formed from ADPKD donor cells in 3D cultures show a time dependent change in cyst size.”"}, "[4]": {"conditions": "2D culture, up to 10 mM DFMO, Cell Titer Glo (ATP release), FIG. 1"}}, "note": "Entries after “also recorded” stand apart in the source; their conditions may differ."}
{"substance": "difluoromethylornithine [DFMO]", "values": [{"measurement": "cyst size over time", "setting": "[1]; 10 mM DFMO, Day 0 to Day 4, FIG. 4", "result": "decreases with time; also recorded: slight increase on Day 1 followed by a steady decrease in cyst size by Day 4 when the cyst is smaller than on Day 0"}, {"measurement": "number of cysts formed, relative to controls", "setting": "[1]; 10 mM DFMO, FIG. 2", "result": "50 % of controls"}, {"measurement": "number of cysts versus DFMO concentration", "setting": "[1]; FIG. 2", "result": "decrease in a dose-dependent manner"}, {"measurement": "tubule formation", "setting": "[2]; Day 3, FIG. 6", "result": "form tubules"}, {"measurement": "tubule numbers, maturation and elongation versus vehicle", "setting": "[2]; visual comparison over time", "result": "appear similar"}, {"measurement": "cell viability", "setting": "[3]; [4]", "result": 90, "unit": "%"}, {"measurement": "toxicity to ADPKD cells", "setting": "[3]; [4]", "result": "less than 10%"}, {"measurement": "cell killing in 2D cultures", "setting": "[3]; ADPKD cells, 2D cultures", "result": "not killed"}]}
